Laboratory results from ChEMBL document CHEMBL2146433, “Melanin concentrating hormone receptor 1 (MCHR1) antagonists-Still a viable approach for obesity treatment?” (Bioorg Med Chem Lett, 2012).
One block for each compound: values may come before it.

Key:
[1] = target: T1, Melanin-concentrating hormone receptor 1 (Homo sapiens, UniProt Q99705); assay: Binding affinity to MCHR1 receptor by cell-based assay
[2] = tested on: Rattus norvegicus; assay: Antiobesity activity in obese rat assessed as reduction in body weight at 3 mg/kg, po measured on day 29; assay type: functional; design: scale not given: the % may be the effect or the level left
[3] = tested on: Rattus norvegicus; assay: Antiobesity activity in obese rat assessed as reduction in body weight at 30 mg/kg, po measured on day 29; assay type: functional; design: scale not given: the % may be the effect or the level left
[4] = Displacement of [Phe13, [125I]Tyr19]-MCH from human MCHR1 receptor E4Q/A5T mutant expressed in HEK 293 cell membranes by scintillation counter; conditions: hek293
[5] = target: T1, Melanin-concentrating hormone receptor 1; assay: Displacement of [125I]-MCH from human MCHR1 receptor expressed in CHO-K1 cell membranes after 2 hrs by scintillation proximity assay

T1 sequence (Q99705 whole entry): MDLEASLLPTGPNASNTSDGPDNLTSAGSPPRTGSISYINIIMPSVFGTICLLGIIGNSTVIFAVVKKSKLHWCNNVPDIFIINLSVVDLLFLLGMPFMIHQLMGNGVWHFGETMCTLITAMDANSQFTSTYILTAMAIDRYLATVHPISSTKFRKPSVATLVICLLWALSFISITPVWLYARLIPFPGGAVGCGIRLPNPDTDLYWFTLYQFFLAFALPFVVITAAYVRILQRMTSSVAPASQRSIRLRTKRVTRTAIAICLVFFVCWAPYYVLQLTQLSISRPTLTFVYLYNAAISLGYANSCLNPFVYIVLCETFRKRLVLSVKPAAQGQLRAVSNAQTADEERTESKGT

Activity [1]: 50 nM
Compound: COc1ccc(/C=C/C(=O)Nc2ccc3nc(N4CCOCC4)cc(C)c3c2)cc1

Compound: COc1cc(-n2cnc3cc(-c4ccc(Cl)cc4)sc3c2=O)ccc1OCC1(OC(=O)CN)CC(F)(F)C1
Activity [2]: 10.2%
Activity [3]: 10.2%

Compound: COc1cc(-n2cnc3cc(-c4ccc(Cl)cc4)sc3c2=O)ccc1OC[C@H](O)C1CC1
Ki [4]: 18 nM

Compound: COc1cc(-n2cnc3cc(-c4ccc(Cl)cc4)sc3c2=O)ccc1OCC1(O)CC(F)(F)C1
Ki [4]: 10 nM

Compound: COc1cc(-n2cnc3cc(-c4ccc(Cl)cc4)sc3c2=O)ccc1OC[C@H](OP(=O)(O)O)C1CC1 [BMS-830216]
Activity [2]: 7.8%
Activity [3]: 7.8%

Activity [1]: 50 nM
Compound: Cc1ccc(/C=C/C(=O)Nc2ccc3nc(N4CCN(C)CC4)cc(C)c3c2)cc1

IC50 [5]: 10 nM
Compound: CN(C)CC1CCc2cc(NC(=O)Nc3ccc(Oc4ccccc4)cc3)ccc2C1 (centres undefined)
